Patent publication US20220112187A1, “PYRAZOLOPYRIDINE AMINE COMPOUNDS FOR THE TREATMENT OF AUTOIMMUNE DISEASE” (Hoffmann-La Roche Inc., priority 2018, published 2022)

Molecular target: T1, human TLR8 (Homo sapiens, UniProt Q9NR97)
T1 sequence (Q9NR97 27-1041): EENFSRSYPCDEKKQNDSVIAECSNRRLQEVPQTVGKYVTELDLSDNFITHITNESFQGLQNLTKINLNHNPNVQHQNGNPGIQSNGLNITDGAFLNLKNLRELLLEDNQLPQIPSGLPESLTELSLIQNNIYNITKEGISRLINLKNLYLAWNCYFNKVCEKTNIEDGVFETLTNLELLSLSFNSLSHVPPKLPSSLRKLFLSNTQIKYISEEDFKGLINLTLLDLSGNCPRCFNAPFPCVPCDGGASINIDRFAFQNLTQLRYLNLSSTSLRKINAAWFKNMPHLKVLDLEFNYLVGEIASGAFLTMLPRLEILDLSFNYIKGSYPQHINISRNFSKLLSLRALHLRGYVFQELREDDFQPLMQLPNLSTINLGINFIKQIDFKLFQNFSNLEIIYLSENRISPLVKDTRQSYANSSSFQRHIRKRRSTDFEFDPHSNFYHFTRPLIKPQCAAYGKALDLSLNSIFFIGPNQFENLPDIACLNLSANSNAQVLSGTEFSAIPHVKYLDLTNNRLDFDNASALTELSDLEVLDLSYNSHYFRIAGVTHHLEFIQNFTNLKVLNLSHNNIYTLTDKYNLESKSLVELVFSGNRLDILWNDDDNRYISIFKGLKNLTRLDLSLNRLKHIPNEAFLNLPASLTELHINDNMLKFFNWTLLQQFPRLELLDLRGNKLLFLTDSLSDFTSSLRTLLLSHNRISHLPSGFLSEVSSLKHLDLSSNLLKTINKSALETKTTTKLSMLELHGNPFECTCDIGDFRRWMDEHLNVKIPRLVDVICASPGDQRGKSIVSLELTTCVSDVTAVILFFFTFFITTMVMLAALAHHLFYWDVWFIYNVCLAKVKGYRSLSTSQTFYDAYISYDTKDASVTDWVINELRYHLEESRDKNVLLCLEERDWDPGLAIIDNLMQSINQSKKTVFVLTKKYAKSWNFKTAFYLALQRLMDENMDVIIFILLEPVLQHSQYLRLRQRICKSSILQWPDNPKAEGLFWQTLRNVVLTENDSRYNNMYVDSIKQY
Experiment: HEK293-Blue-hTLR-8 cells assay (SEAP reporter, R848 stimulation)
Assay type: cell-based
Settings: HEK293-Blue-hTLR8 cells, R848 ligand, 20 hrs incubation
Text: A stable HEK293-Blue-hTLR-8 cell line was purchased from InvivoGen (Cat. #: hkb-htlr8, San Diego, Calif., USA). These cells were originally designed for studying the stimulation of human TLR8 by monitoring the activation of NF-κB. A SEAP (secreted embryonic alkaline phosphatase) reporter gene was placed under the control of the IFN-β minimal promoter fused to five NF-κB and AP-1-binding sites. The SEAP was induced by activating NF-κB and AP-1 via stimulating HEK-Blue hTLR8 cells with TLR8 ligands. Therefore the reporter expression was declined by TLR8 antagonist under the stimulation of a ligand, such as R848, for incubation of 20 hrs. The cell culture supernatant SEAP reporter activity was determined using QUANTI-Blue™ kit (Cat. #: rep-qb1, Invivogen, San Diego, Ca, USA) at a wavelength of 640 nm, a detection medium that turns purple or blue in the presence of alkaline phosphatase.
HEK293-Blue-hTLR8 cells were incubated at a density of 250,000˜450,000 cells/mL in a volume of 170 μL in a 96-well plate in Dulbecco's Modified Eagle's medium (DMEM) containing 4.5 g/L glucose, 50 U/mL penicillin, […], […], 2 mM L-glutamine, 10% (v/v) heat-inactivated fetal bovine serum with addition of 20 μL test compound in a serial dilution in the presence of final DMSO at 1% and 10 μL of 60 uM R848 in above DMEM, perform incubation under 37° C. in a CO2 incubator for 20 hrs. Then 20 μL of the supernatant from each well was incubated with 180 μL Quanti-blue substrate solution at 37° C. for 2 hrs and the absorbance was read at 620˜655 nm using a spectrophotometer. The signalling pathway that TLR8 activation leads to downstream NF-κB activation has been widely accepted, and therefore similar reporter assay was modified for evaluating TLR8 antagonist.

Compound | IC50 [µM]
C[C@@H]1CN(c2ccc(C#N)n3nccc23)C[C@H](CN2CC3(CCCNCC3)C2)O1 [Example 46, 4-[(2S,6R)-2-(2,8-diazaspiro[3.6]decan-2-ylmethyl)-6-methyl-morpholin-4-yl]pyrazolo[1,5-a]pyridine-7-carbonitrile] | 0.15
C[C@@H]1CN(c2ccc(C#N)n3nccc23)C[C@H](CN2CCCC3CNCC32)O1 (stereo partly drawn) [Example 61, 4-[(2S,6R)-2-(2,3,4,4a,5,6,7,7a-octahydropyrrolo[3,4-b]pyridin-1-ylmethyl)-6-methyl-morpholin-4-yl]pyrazolo[1,5-a]pyridine-7-carbonitrile] | 0.3
C[C@@H]1CN(c2ccc(C#N)n3nccc23)C[C@H](CNC2CCN(C)CC2)O1 [Example 7, 4-[(2R,6S)-2-methyl-6-[[(1-methyl-4-piperidyl)amino]methyl]morpholin-4-yl]pyrazolo[1,5-a]pyridine-7-carbonitrile] | 0.32
C[C@@H]1CN(c2ccc(C#N)n3nccc23)C[C@H](CN2CCC23CNC3)O1 [Example 55, 4-[(2S,6R)-2-(1,6-diazaspiro[3.3]heptan-1-ylmethyl)-6-methyl-morpholin-4-yl]pyrazolo[1,5-a]pyridine-7-carbonitrile] | 0.87
C[C@@H]1CN(c2ccc(C#N)n3nccc23)C[C@H](CN2C[C@H]3CC[C@@H](N(C)C)[C@H]3C2)O1 (racemic) [Example 75, 4-[(2S,6R)-2-[[4-(dimethylamino)-3,3a,4,5,6,6a-hexahydro-1H-cyclopenta[c]pyrrol-2-yl]methyl]-6-methyl-morpholin-4-yl]pyrazolo[1,5-a]pyridine-7-carbonitrile] | 0.6
C[C@@H]1CN(c2ccc(C#N)n3nccc23)C[C@H](CN2C3CCC2CNC3)O1 [Example 43, 4-[(2S,6R)-2-(3,8-diazabicyclo[3.2.1]octan-8-ylmethyl)-6-methyl-morpholin-4-yl]pyrazolo[1,5-a]pyridine-7-carbonitrile] | 0.031
C[C@@H]1CN(c2ccc(C#N)n3nccc23)C[C@H](CN2C3CCCC2CC(N)C3)O1 (stereo partly drawn) [Example 65, Endo-4-[(2S,6R)-2-[(3-amino-9-azabicyclo[3.3.1]nonan-9-yl)methyl]-6-methyl-morpholin-4-yl]pyrazolo[1,5-a]pyridine-7-carbonitrile] | 0.064
C[C@@H]1CN(c2ccc(C#N)n3nccc23)C[C@H](CN2CC3(CCNC3)CC2=O)O1 (stereo partly drawn) [Example 20, 4-[(2R,6R)-2-methyl-6-[(3-oxo-2,7-diazaspiro[4.4]nonan-2-yl)methyl]morpholin-4-yl]pyrazolo[1,5-a]pyridine-7-carbonitrile] | 0.61
C[C@@H]1CN(c2ccc(C#N)n3nccc23)C[C@H](CN2CC3CCCNC3C2)O1 (stereo partly drawn) [Example 45, 4-[(2S,6R)-2-(1,2,3,4,4a,5,7,7a-octahydropyrrolo[3,4-b]pyridin-6-ylmethyl)-6-methyl-morpholin-4-yl]pyrazolo[1,5-a]pyridine-7-carbonitrile] | 0.23
C[C@@H]1CN(c2ccc(C#N)n3nccc23)C[C@H](CN2C3CCCC2CC(N)C3)O1 (stereo partly drawn) [Example 66, Exo-4-[(2S,6R)-2-[(3-amino-9-azabicyclo[3.3.1]nonan-9-yl)methyl]-6-methyl-morpholin-4-yl]pyrazolo[1,5-a]pyridine-7-carbonitrile] | 0.14
C[C@@H]1CN(c2ccc(C#N)n3nccc23)C[C@H](CN2CC3(CCCNC3)C2)O1 [Example 10, 4-[(2S,6R)-2-(2,8-diazaspiro[3.5]nonan-2-ylmethyl)-6-methyl-morpholin-4-yl]pyrazolo[1,5-a]pyridine-7-carbonitrile] | 0.13

More lines, now with the values ahead:

IC50 [µM] | Compound
0.019 | C[C@@H]1CN(c2ccc(C#N)n3nccc23)C[C@H](CN2CCC(N3CCCCC3)CC2)O1 [Example 16, 4-[(2R,6S)-2-methyl-6-[[4-(1-piperidyl)-1-piperidyl]methyl]morpholin-4-yl]pyrazolo[1,5-a]pyridine-7-carbonitrile]
0.042 | C[C@@H]1CN(c2ccc(C#N)n3nccc23)C[C@H](CN2CCC(N3CCCC3)CC2)O1 [Example 54, 4-[(2R,6S)-2-methyl-6-[(4-pyrrolidin-1-yl-1-piperidyl)methyl]morpholin-4-yl]pyrazolo[1,5-a]pyridine-7-carbonitrile]
0.11 | C[C@@H]1CN(c2ccc(C#N)n3nccc23)C[C@H](CN2CCC3(CCN3)CC2)O1 [Example 48, 4-[(2S,6R)-2-(1,7-diazaspiro[3.5]nonan-7-ylmethyl)-6-methyl-morpholin-4-yl]pyrazolo[1,5-a]pyridine-7-carbonitrile]
0.028 | C[C@@H]1CN(c2ccc(C#N)n3nccc23)C[C@H](CN2CCC(N3CCN(C)CC3)CC2)O1 [Example 1, 4-[(2R,6S)-2-methyl-6-[[4-(4-methylpiperazin-1-yl)-1-piperidyl]methyl]morpholin-4-yl]pyrazolo[1,5-a]pyridine-7-carbonitrile]
0.038 | C[C@@H]1CN(c2ccc(C#N)n3ncc(F)c23)C[C@H](CN2CCCC3(CCNCC3)C2)O1 [Example 67, 4-[(2S,6R)-2-(2,9-diazaspiro[5.5]undecan-2-ylmethyl)-6-methyl-morpholin-4-yl]-3-fluoro-pyrazolo[1,5-a]pyridine-7-carbonitrile]
0.065 | CC1CN(C[C@H]2CN(c3ccc(C#N)n4nccc34)C[C@@H](C)O2)CCN1 (stereo partly drawn) [Example 28, 4-[(2R,6S)-2-methyl-6-[(3-methylpiperazin-1-yl)methyl]morpholin-4-yl]pyrazolo[1,5-a]pyridine-7-carbonitrile]
0.039 | C[C@@H]1CN(c2ccc(C#N)n3nccc23)C[C@H](CN2CCC3(CCNC3)C2=O)O1 (stereo partly drawn) [Example 21, 4-[(2R,6R)-2-methyl-6-[(1-oxo-2,7-diazaspiro[4.4]nonan-2-yl)methyl]morpholin-4-yl]pyrazolo[1,5-a]pyridine-7-carbonitrile]
0.054 | C[C@@H]1CN(c2ccc(C#N)n3nccc23)C[C@H](CN2CCCC3(CNC3)C2)O1 [Example 33, 4-[(2S,6R)-2-(2,6-diazaspiro[3.5]nonan-6-ylmethyl)-6-methyl-morpholin-4-yl]pyrazolo[1,5-a]pyridine-7-carbonitrile]
0.029 | C[C@@H]1CN(c2ccc(C#N)n3nccc23)C[C@H](CN2CCC3NCCC3C2)O1 (stereo partly drawn) [Example 41, 4-[(2S,6R)-2-(1,2,3,3a,4,6,7,7a-octahydropyrrolo[3,2-c]pyridin-5-ylmethyl)-6-methyl-morpholin-4-yl]pyrazolo[1,5-a]pyridine-7-carbonitrile]
0.039 | C[C@@H]1CN(c2ccc(C#N)n3nccc23)C[C@H](CN2CC[C@H](N)[C@H](C)C2)O1 [Example 74, 4-[(2S,6R)-2-[[(3R,4S)-4-amino-3-methyl-1-piperidyl]methyl]-6-methyl-morpholin-4-yl]pyrazolo[1,5-a]pyridine-7-carbonitrile]
0.029 | C[C@@H]1CN(c2ccc(C#N)n3nccc23)C[C@H](CN2CCC3(CCCN3)CC2)O1 [Example 53, 4-[(2S,6R)-2-(1,8-diazaspiro[4.5]decan-8-ylmethyl)-6-methyl-morpholin-4-yl]pyrazolo[1,5-a]pyridine-7-carbonitrile]
0.058 | C[C@@H]1CN(c2ccc(C#N)n3nccc23)C[C@H](CN2CCC(N)CC2)O1 [Example 17, 4-[(2S,6R)-2-[(4-amino-1-piperidyl)methyl]-6-methyl-morpholin-4-yl]pyrazolo[1,5-a]pyridine-7-carbonitrile]
